Measured values reported in the supplement of paper PMC11061612.

How the values were obtained:
[1] = tested on: OCUM-1 (Gastric Carcinoma); assay: combination Emax (second highest fraction inhibited in the dose matrix, 72 h); higher = more inhibition; extreme values may be limits of the assay
Outline: (§1)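 Bliss excess equals the observed combination effect minus the expected value EA + EB − EA·EB, where EA and EB are the effects of each agent alone. Combination Emax is the second-highest inhibition within the matrix. Inhibition was scaled from CellTiter-Glo 2.0 luminescence, with 0 set by vehicle wells and 1 by blank wells, after 72 hours of two-drug dosing of cells plated in 1536-well plates.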

EW-3 (Ewing's Sarcoma) [2] = assay: as above
Outline: as §1

[3] = tested on: VMRC-LCD (Lung Adenocarcinoma); assay: as above
Outline: as §1

[4] = tested on: NCI-N87 (Gastric Carcinoma); assay: as above
Outline: as §1

[5] = tested on: SNU-C1 (Colorectal Carcinoma); assay: as above
Outline: as §1

[6] = tested on: TGBC11TKB (Gastric Carcinoma); assay: as above
Outline: as §1

[7] = tested on: JHH-7 (Hepatocellular Carcinoma); assay: as above
Outline: as §1

NB7 (Neuroblastoma) [8] = assay: as above
Outline: as §1

[9] = tested on: HSC-2 (Oral Cavity Carcinoma); assay: as above
Outline: as §1

[10] = tested on: SCC-9 (Oral Cavity Carcinoma); assay: as above
Outline: as §1

[11] = tested on: KINGS-1 (Low Grade Glioma); assay: as above
Outline: as §1

[12] = tested on: OCUB-M (Breast Carcinoma); assay: as above
Outline: as §1

GI-1 (Glioblastoma) [13] = assay: as above
Outline: as §1

[14] = tested on: H-EMC-SS (Chondrosarcoma); assay: as above
Outline: as §1

[15] = tested on: LC4-1 (B-Lymphoblastic Leukemia); assay: as above
Outline: as §1

[16] = tested on: OCUM-1 (Gastric Carcinoma); assay: Bliss excess, mean over the matrix (fraction); higher = more synergy
Outline: as §1

EW-3 (Ewing's Sarcoma) [17] = assay: as above
Outline: as §1

[18] = tested on: VMRC-LCD (Lung Adenocarcinoma); assay: as above
Outline: as §1

[19] = tested on: NCI-N87 (Gastric Carcinoma); assay: as above
Outline: as §1

[20] = tested on: SNU-C1 (Colorectal Carcinoma); assay: as above
Outline: as §1

[21] = tested on: TGBC11TKB (Gastric Carcinoma); assay: as above
Outline: as §1

[22] = tested on: JHH-7 (Hepatocellular Carcinoma); assay: as above
Outline: as §1

NB7 (Neuroblastoma) [23] = assay: as above
Outline: as §1

[24] = tested on: HSC-2 (Oral Cavity Carcinoma); assay: as above
Outline: as §1

[25] = tested on: SCC-9 (Oral Cavity Carcinoma); assay: as above
Outline: as §1

[26] = tested on: KINGS-1 (Low Grade Glioma); assay: as above
Outline: as §1

[27] = tested on: OCUB-M (Breast Carcinoma); assay: as above
Outline: as §1

GI-1 (Glioblastoma) [28] = assay: as above
Outline: as §1

[29] = tested on: H-EMC-SS (Chondrosarcoma); assay: as above
Outline: as §1

[30] = tested on: LC4-1 (B-Lymphoblastic Leukemia); assay: as above
Outline: as §1

SMILES	combination Emax [1]	combination Emax (EW-3 (Ewing's Sarcoma) [2])	combination Emax [3]	combination Emax [4]	combination Emax [5]	combination Emax [6]	combination Emax [7]	combination Emax (NB7 (Neuroblastoma) [8])	combination Emax [9]	combination Emax [10]	combination Emax [11]	combination Emax [12]	combination Emax (GI-1 (Glioblastoma) [13])	combination Emax [14]	combination Emax [15]	Bliss excess [16]	Bliss excess (EW-3 (Ewing's Sarcoma) [17])	Bliss excess [18]	Bliss excess [19]	Bliss excess [20]	Bliss excess [21]	Bliss excess [22]	Bliss excess (NB7 (Neuroblastoma) [23])	Bliss excess [24]	Bliss excess [25]	Bliss excess [26]	Bliss excess [27]	Bliss excess (GI-1 (Glioblastoma) [28])	Bliss excess [29]	Bliss excess [30]
N#Cc1cnc(Nc2cc(NC[C@H]3CNCCO3)c(C(F)(F)F)cn2)cn1 [SRA737] + C=CCn1c(=O)c2cnc(Nc3ccc(N4CCN(C)CC4)cc3)nc2n1-c1cccc(C(C)(C)O)n1 [AZD1775] (first compound max 10 µM, partner max 1 µM)	0.53	0.501	0.778	0.828	0.789	0.919	0.543	0.849	0.584	0.326	0.412	0.637	0.91	0.354	0.891	0.0537	0.0086	-0.0067	0.0275	0.12	0.0401	-0.0263	0.0949	0.0573	0.0078	0.0035	0.102	0.0907	0.0311	0.0618
CS(=O)(=O)CCNCc1ccc(-c2ccc3ncnc(Nc4ccc(OCc5cccc(F)c5)c(Cl)c4)c3c2)o1 [Lapatinib] + Cn1cnc2c(F)c(Nc3ccc(Br)cc3Cl)c(C(=O)NOCCO)cc21 [Selumetinib] (first compound max 10 µM, 7x7, partner max 10 µM)	0.95	0.405	0.207	0.991	0.785	0.527	0.344	0.119	0.782	0.988	0.337	0.551	0.368	0.317	0.954	-0.0148	-0.0017	-0.0369	0.0451	-0.0196	0.106	-0.0408	-0.0408	-0.0044	0.0063	-0.0191	-0.0507	0.0054	-0.0086	0.0675
C[C@@H](Oc1cc(-c2cnn(C3CCNCC3)c2)cnc1N)c1c(Cl)ccc(F)c1Cl [Crizotinib] + Cn1cnc2c(F)c(Nc3ccc(Br)cc3Cl)c(C(=O)NOCCO)cc21 [Selumetinib] (first compound max 10 µM, 7x7, partner max 10 µM)	0.936	0.525	0.665	0.383	0.892	0.557	0.56	0.443	0.551	0.919	0.799	0.458	0.602	0.405	0.896	0.0251	-0.134	-0.0474	-0.0764	0.0325	0.0524	-0.0152	-0.0033	-0.0618	0.0117	0.0342	0.0034	-0.0355	-0.0166	-0.0198
C[C@@H](Nc1cc(F)cc(F)c1)c1cc(C(=O)N(C)C)cc2c(=O)cc(N3CCOCC3)oc12 [AZD8186] + CC(=O)c1c(C)c2cnc(Nc3ccc(N4CCNCC4)cn3)nc2n(C2CCCC2)c1=O [Palbociclib] (first compound max 10 µM, 7x7, partner max 10 µM)	0.36	0.392	0.165	0.656	0.37	0.178	0.216	0.932	0.533	0.382	0.398	0.252	0.454	0.474	0.641	0.0111	0.0752	0.006	0.0255	0.0065	0.0002	-0.0086	0.211	0.0014	0.0322	0.0318	-0.0466	0.0438	-0.0127	0.202
CC1(C)CCC(CN2CCN(c3ccc(C(=O)NS(=O)(=O)c4ccc(NCC5CCOCC5)c([N+](=O)[O-])c4)c(Oc4cnc5[nH]ccc5c4)c3)CC2)=C(c2ccc(Cl)cc2)C1 [Venetoclax] + CS(=O)(=O)CCNCc1ccc(-c2ccc3ncnc(Nc4ccc(OCc5cccc(F)c5)c(Cl)c4)c3c2)o1 [Lapatinib] (first compound max 1 µM, 7x7, partner max 10 µM)	0.178	0.55	0.256	0.931	0.0031	0.325	0.335	0.117	0.8	0.955	0.208	0.518	0.284	0.188	1	-0.0196	0.0862	-0.0139	-0.0029	-0.0495	0.0197	-0.0408	-0.0348	-0.0145	-0.036	-0.0466	-0.0181	0.0283	-0.0278	0.0233
O=C(c1cc(Cc2n[nH]c(=O)c3ccccc23)ccc1F)N1CCN(C(=O)C2CC2)CC1 [Olaparib] + CC1(C)CCC(CN2CCN(c3ccc(C(=O)NS(=O)(=O)c4ccc(NCC5CCOCC5)c([N+](=O)[O-])c4)c(Oc4cnc5[nH]ccc5c4)c3)CC2)=C(c2ccc(Cl)cc2)C1 [Venetoclax] (first compound max 10 µM, 7x7, partner max 1 µM)	0.172	0.887	0.151	0.121	0.0848	0.183	0.173	0.301	0.115	0.0718	0.131	0.17	0.265	0.119	1	-0.0472	0.0351	-0.0266	-0.0552	-0.0425	-0.0224	-0.032	-0.0285	-0.0219	-0.047	-0.0359	-0.0483	0.0518	-0.0572	0.0096
C=CCn1c(=O)c2cnc(Nc3ccc(N4CCN(C)CC4)cc3)nc2n1-c1cccc(C(C)(C)O)n1 [AZD1775] + Nc1ccn([C@@H]2O[C@H](CO)[C@@H](O)C2(F)F)c(=O)n1 [Gemcitabine] (first compound max 1 µM, partner max 0.3 µM)	0.656	0.904	0.6	0.735	0.485	0.918	0.399	0.721	0.947	0.375	0.341	0.955	0.916	0.649	0.945	0.0616	0.0204	-0.0497	-0.0481	-0.0308	0.0011	-0.0298	0.0441	0.0227	0.0215	-0.0065	0.0679	0.0649	0.014	0.0478
N#Cc1cnc(Nc2cc(NC[C@H]3CNCCO3)c(C(F)(F)F)cn2)cn1 [SRA737] + Nc1ccn([C@@H]2O[C@H](CO)[C@@H](O)C2(F)F)c(=O)n1 [Gemcitabine] (first compound max 10 µM, 7x7, partner max 0.3 µM)	0.709	0.902	0.773	0.702	0.712	0.942	0.569	0.765	0.959	0.401	0.29	0.951	0.916	0.542	0.976	-0.022	-0.0521	0.0934	-0.0415	-0.0175	0.0075	0.0691	0.0519	0.059	0.0211	-0.0208	0.0085	0.0455	-0.0056	0.113
CN(CCO)CC[C@H](CSc1ccccc1)Nc1ccc(S(=O)(=O)NC(=O)c2ccc(N3CCC([C@@H](O)c4ccccc4-c4ccc(Cl)cc4)CC3)cc2)cc1S(=O)(=O)C(F)(F)F [AZD4320] + Nc1ccn([C@@H]2O[C@H](CO)[C@@H](O)C2(F)F)c(=O)n1 [Gemcitabine] (first compound max 1 µM, 7x7, partner max 0.3 µM)	0.905	0.91	0.288	0.822	0.533	0.882	0.284	0.556	1	0.539	0.502	0.812	0.936	0.832	1	0.0262	-0.0522	-0.0095	-0.0058	-0.0482	0.0225	-0.033	-0.0153	0.0613	-0.0247	-0.0068	0.0471	0.112	0.0342	0.0156
